Data as given in a melting point compilation (Tetko et al.; mined from patent text by program, amines drawn as free bases though some values may be those of a salt).

| SMILES | melting point [°C] |
| --- | --- |
| Cn1nnc2cccc(S(N)(=O)=O)c21 | 198 to 200 |
| O=C(Nc1ccc(C(=O)N2CCCCc3sc(Cl)cc32)cc1)c1ccc(Cl)cc1Cl | 187 to 189 |
| CCOC(=O)c1cc(OCCOC)c(OCCOC)cc1[N+](=O)[O-] | 50 to 51 |
| O=C(Nc1cccc2c1C(=O)c1c-2n[nH]c1C1CCN(C(=O)N2CCNCC2)CC1)NN1CCOCC1 | 195 to 197 |
| Cc1cc(Cl)ccc1N=CN(C)SN(c1ccccc1)c1ccccc1 | 78 to 79 |
| CCC1(CC)CN(C(C)(C)C)C(=O)C(CC)(CC)N1OC(C)(C)C#N | 45 to 52 |
| COc1c(C)cc(C(=O)c2ccc(Cl)cc2)c(OC)c1OC | 99.5 to 100 |
| CCc1nc2c(cnn2CC)c(NC2CCOCC2)c1CNC(=O)c1cccc(C(=O)NCc2cc(Cl)cc(-c3cccc(CN4CCNC(C)C4)c3)c2)c1 (stereo not drawn) | 119 to 121 |
| N#CSCC(I)=C(I)CCl | 76 to 78 |
| O=c1cc(N2CCCC(CO)C2)oc2c1ccc1ccccc12 (stereo not drawn) | 209 to 210 |
| Cc1cc(C)c2nc3sccn3c(=O)c2c1 | 190 to 192 |
| Cc1cc(C)c2c(c1)C(Nc1ncnc(N)n1)CCC2 (stereo not drawn) | 178 to 180 |
| O=C(O)CCCCCOc1cc(-c2ccc(NC(=O)C(F)(F)F)cc2)cc(-c2ccccc2)n1 | 178 to 180 |
| CS(=O)(=O)c1ccc(-n2nc(C(F)(F)F)cc2-c2ccc(-c3cccs3)cc2)cc1F | 75 to 76 |
| Nc1cccc(Cn2c(-c3ccc(O)cc3)ccc2-c2ccccc2Cl)n1 | 170 to 172 |
| O=C(Cc1ccc(Cl)cc1)c1ccc(Cl)cc1Cl | 65 to 66 |
| Cc1ccc(NC(=O)N[C@@H]2N=C(c3ccccc3)c3ccccc3N(C)C2=O)cc1 | 233 to 235 |
| CC(Oc1ncc(F)c(N)n1)c1ccc(F)cc1 (stereo not drawn) | 96 to 98 |
| CC(C)c1c(C(=O)Nc2ccccc2)c(-c2ccc(F)cc2)cn1-c1ccccc1 | 192 to 194 |
| CCCC(c1ccc(C)cc1)n1c(C(=O)OC)cnc1S (stereo not drawn) | 209 to 211 |
| COC(=O)c1c(C2CC2)nn2ccc3c(c12)CCO3 | 170 to 172 |
| COc1nc2cc(Br)c(Br)c(NS(C)(=O)=O)c2nc1OC | 186 to 187 |
| CN(C)c1cc2c(cc1-c1ccc3cc(C=C4SC(=S)N(CC(=O)O)C4=O)ccc3c1)C(C)(C)CCC2(C)C | 194 to 196 |
| COC(=O)[C@H]1CC[C@@H](NC(=O)c2cc(-c3ccc(C#N)cc3)nn(C)c2=O)CC1 | 190 to 192 |

| SMILES | melting point [°C] |
| --- | --- |
| CCN(CC)CCOC(=O)C(C)(c1ccc(O)cc1)c1ccc(O)cc1 | 140 to 141 |
| CCn1nc2c(N)nc3ccccc3c2c1CCCCOC(C)=O | 128 to 129 |
| C=CCC(NC(=O)C(C)(C)C)C(=O)O (stereo not drawn) | 87 to 88 |
| CCNC(=O)CCCNC(=O)OC(C)(C)C | 82 to 83 |
| CC(C)C[C@@H](C=NNC(N)=O)NC(=O)[C@H](Cc1c[nH]cn1)NC(=O)C(CCCCc1ccccc1)Cc1cccc2ccccc12 (stereo partly drawn) | 108 to 114 |
| CC(C)n1nc(-c2cc(C#N)c(N)nc2-c2ccccc2)ccc1=O | 197 to 198 |
| O=C(OCc1ccccc1)c1ccc(O)c(CO)c1 | 109 to 110 |
| OCC1CCc2cc(OCc3ccccc3)ccc2O1 (racemic) | 80 to 82 |
| NC(=O)Nc1cccc2c1nc(/C=C/c1ccccc1)n2-c1ccccn1 | > 230 |
| COC(=O)c1ccccc1NC1C=CC(=O)O1 (stereo not drawn) | 172 to 173 |
| NC(=O)c1[nH]cnc1OC(=O)C=Cc1cccc([N+](=O)[O-])c1 | 197 |
| CCOC(=O)C1=C(C)NC(C)=C(C(=O)OC(C)C)C1c1ccccc1C#N (stereo not drawn) | 152 |
| Cn1c(=O)[nH]c2ccc(-c3cccc([N+](=O)[O-])c3)cc21 | 264 to 265 |
| CCC(=O)N(OC(=O)NC)C(=O)NC | 90.5 to 92.5 |
| O=C(O)C1CN(Cc2ccccc2)CCN1Cc1ccccc1 (stereo not drawn) | 184 to 185 |
| NCc1c(-c2ccc(Oc3ccccc3)cc2)c2c(N)ncnc2n1C1CCCC1 | 196 to 198 |
| Cc1nnc(-c2ccc3occ(-c4ccccc4F)c3c2)o1 | 112 to 113 |
| CCCNC(=O)C1(CCCc2ccccc2)c2ccccc2Sc2ccccc21 | 130 to 131 |
| O=C(Nc1cc2ncc(CN3CCCC3)cc2cc1F)c1ccc(-c2ccc(C(F)(F)F)cc2)cc1 | 209 to 212 |
| COCO[C@@H]1[C@H]2OC(C)(C)O[C@H]2[C@H](O[C@H]2C[C@H]3OC(C)(C)OC[C@]34C3C(CC[C@]4(O)C2)[C@@]2(O)CC[C@H](CO)[C@@]2(C)C[C@H]3OCOC)O[C@H]1C (stereo partly drawn) | 126 to 129 |
| Cc1cc(Oc2nc(-c3ccccc3)ns2)c(C)cc1N=CN(C)C | 100 to 105 |
| O=C(O)CCNc1ccc2c(C(=O)NCC34CC5CC(CC(C5)C3)C4)c(Cl)ccc2n1 | 251 to 252 |
| Nc1nc(COc2ccc(Cl)c(Cl)c2)nc2nccnc12 | 261 to 263 |
| CCc1cn(C2OC(CN)C(O)C2F)c(=O)[nH]c1=O (stereo not drawn) | 194 to 214 |

Further lines, results first:

| melting point [°C] | SMILES |
| --- | --- |
| 85 to 86 | CCCc1c(SCCCOc2ccc(C(C)O)c(OCCCC(=O)O)c2CCC)ccc(C(C)=O)c1O (stereo not drawn) |
| 126 to 129 | CC(=O)C(=NO)c1ccc(F)cc1F |
| 115 to 117 | CC(C)(C)NS(=O)(=O)Cc1ccccc1N |
| 146 to 148 | COc1cc2c(=O)n(C)c(-c3ccc(OC4CCN(C5CCC5)CC4)cc3)nc2cn1 |
| 70 to 72 | CC1(c2ccc(F)cc2)OC(C=Cc2ccccn2)=CC1=O (stereo not drawn) |
| 67.3 to 68.1 | CN1CCCCC1COC(=O)Nc1cccc(Br)c1 (stereo not drawn) |
| 188 to 190 | CCS(=O)Cc1cccc(-c2nc(=O)c3ccccc3s2)n1 (stereo not drawn) |
| 167 | COc1ccc(S(=O)(=O)N2C(=O)C(c3ccccc3OC)(N3c4ccccc4C[C@H]3C(=O)N(C)C)c3cc(Cl)ccc32)c(OC)c1 (stereo partly drawn) |
| 168 to 169 | CC(C)(C)OC(=O)C[C@@H](NC(=O)/C=C/S(=O)(=O)c1ccccc1)C(=O)OC(C)(C)C |
| 223 to 226 | CS(=O)(=O)Nc1ccc(NCC2CCNCC2)c(C(=O)Nc2ccc(Cl)cn2)c1 |
| 104 to 106 | Cc1cccc(C)c1N(CCn1ccnc1)C(=O)CCCc1cccnc1 |
| 147 to 149 | Nc1ccc(Nc2ccc([N+](=O)[O-])cc2S(=O)(=O)CCO)cc1 |
| 286 to 287 | COc1ccc2oc3ccc(I)cc3c2c1C(=O)Nc1cccnc1 |
| 101 to 102 | CCN(c1nc(C)cc(-c2ccccc2C(F)(F)F)n1)c1ccc(C(C)C)cc1Br |
| 204 to 205 | CN(c1cccc2c(F)c(C3=NCC(CC(N)=O)S3)[nH]c12)S(=O)(=O)c1cccs1 (stereo not drawn) |
| 95 to 120 | c1cncc(-c2ccnc(Nc3cccc(-n4ccnc4)c3)n2)c1 |
| 81.5 to 84.5 | CCC(C)COC(=O)Cn1cccc1-c1nc(-c2ccc(OC)cc2)c(-c2ccc(OC)cc2)s1 (stereo not drawn) |
| 146 to 148 | CCCCCn1ncc2c(N)c3c(nc21)CN(Cc1cccc(C(F)(F)F)c1)C3=O |
| 108 to 111 | C1CCCCCC(=NOC(=NC2CCCCC2)NC2CCCCC2)CCCCC1 |
| 77 to 78 | CC(C)Oc1cccc2c1O[C@@H](COS(C)(=O)=O)CC2 |
| 132 to 134 | O=C(C=Cc1cccnc1)NCCCCC1CCN(C(=O)N(c2ccccc2)c2ccccc2)CC1 |
| 175 to 180 | CC=C(C)c1c(-c2ccc(S(C)(=O)=O)cc2)cnn(CC(F)(F)F)c1=O |
| 91 to 93 | CC(=O)N(O)Cc1cccc(C#Cc2ccccc2)c1 |
| 198 to 200 | Cc1cc(-c2ccc(C(F)(F)F)cc2)nc2c(C(=O)Nc3cccc(S(C)(=O)=O)c3)cnn12 |
| 221 to 222 | Cc1ccc2c(c1)CCOC2CCN1CCN(c2ccc(S(N)(=O)=O)cc2)CC1 (stereo not drawn) |

| melting point [°C] | SMILES |
| --- | --- |
| 166 | CC(C)(C)NC(=O)CN(C(=O)CN1C(=O)c2ccccc2C1=O)c1ccccc1 |
| 172 to 174 | COC1CC(CNC(=O)Nc2ccc([N+](=O)[O-])cc2)C(OC)O1 (stereo not drawn) |
| 84 to 87 | N#CCCN(CC1CC1)C(N)=O |
| 189 to 190 | CC(C)n1nc(-c2sc(NC(C)(C)C)nc2-c2ccccc2)ccc1=O |
| 105 to 107 | O=C(NCCC[C@H]1OC[C@H](c2cccc3cc(OCC4CC4)ccc32)CO1)OCC(F)(F)F |
| 128 to 129 | O=S(=O)(NC(CCCN1CCN(c2ncc(F)cn2)CC1)c1ccc(F)cc1)c1ccc(F)cc1 (stereo not drawn) |
| 120 to 121 | Cc1nc2c(cc1NC(=N)N=C=O)CCCCC2CO[N+](=O)[O-] (stereo not drawn) |
| 69 to 71 | CCC(CC)CCOCCCCCCNCC(O)c1ccc(O)c(NS(C)(=O)=O)c1 (stereo not drawn) |
| 170 to 172 | Cc1[nH]c2ccc(F)cc2c1CCC(=O)N1CCN(c2ccccc2)CC1 |
| 158 to 159 | CC(=O)Nc1cc2c(cc1[N+](=O)[O-])OCOC2 |
| 91 to 93 | OCC12CN3CN(C(c4ccccc4)N(C1)C3c1ccccc1)C2c1ccccc1 (stereo not drawn) |
| 59 to 61 | Cc1ccc(S(=O)(=O)OCC(C)(C)CS(N)(=O)=O)cc1 |
| 234 to 235 | Cc1c(F)c(F)c(F)c2c1c(=O)c(C(=O)O)cn2C1CC1 |
| 152 to 153 | Cc1c(C(=O)c2cnn(C)c2OCc2ccccc2)ccc(S(C)(=O)=O)c1C1=NOCC1 |
| 127 to 129 | NCc1cccc(CNC(N)=O)c1 |
| 137 to 138 | O=C(C1=NC=CC(Br)(C(=O)Nc2ccccc2)C1)c1ccccc1 (stereo not drawn) |
| 156 to 157 | CN(Cc1cccc(O)c1)c1cnc(-c2ccccc2)c(-c2ccccc2)n1 |
| 222 to 224 | CNC(=O)Nc1ccc(OCC2CCN(c3ccncc3)CC2)cc1 |
| 164 to 167 | O=C(NNS(=O)(=O)c1ccccc1)c1cc2ccccc2o1 |
| > 300 | Cc1c(CCc2ccc3nc(N)oc3c2)nc2cc(CCl)ccn12 |
| 265 to 267 | Cc1nc2cnccc2n1-c1ccc(O)cc1 |
| 90 | CC(C)(C1OCCO1)C(O)(Cn1cncn1)c1ccc(F)cc1 (stereo not drawn) |
| 185 to 188 | COc1ccc(CNc2ncnc(Cl)c2N)cc1OC |
| 63 to 65 | COc1ccc(C(=O)N[C@@H](Cc2c[nH]c3ccccc23)C(=O)O)cc1 |
| 283 to 284 | Nc1ccc(Br)c2ccn3c(=O)c(C(=O)O)cnc3c12 |
